Results as given in patent US20030134859A1 (SANKYO COMPANY, LIMITED, priority 2000, published 2003).

How the values were obtained:
Rat white adipocytes = test: Stimulation of differentiation of the adipocytes (Oil Red O); type: cell-based; conditions: 100 nM test compound, 5 days, Oil Red O ABS550, control = 100%, blank = 0%, Table 7; for activity at 0.1 µM: Rattus norvegicus, Adipocyte, 120 h, read-out: Rate of Differentiation (%)
How it was run: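 Rat white adipocytes, 5,000 cells/well, cultured 5 days in differentiation-inducing medium with test compound at final 100 nM (0.1% DMSO). Cells fixed, stained with Oil Red O, dye extracted in DMSO and read at 550 nm; differentiation rate expressed relative to vehicle control (100%) and cell-free blank (0%).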

[1] = tested on: human colon cancer cells COL-2-JCK; test: Inhibition of colony forming activity in human colon cancer cells; type: cell-based; conditions: Homo sapiens, 240 h; 1 μM test compound; 10 days; sum of colony areas vs control; read-out: Inhibition Rate (%) against the colony forming activity
Experimental: For the medium to culture the human colon cancer cells, D-MEM/F-12 medium containing inactivated bovine fetal serum at a concentration of 10% (GIBCO) was used. The human colon cancer cells COL-2-JCK (purchased from Institute for Experimental Animals) grown in mass formation in a plastic dish for the cell culture with an inner diameter of 100 mm were stripped off from the dish by using EDTA (ethylenediaminetetraacetic acid) and 0.05% trypsin solution. Then, a cell dilution solution was prepared at a concentration of 100 cells/mL solution which was diluted with the medium (D-MEM/F-12).
Three (3) mL of the cell solution were inoculated in each well of a 6-well plastic plate (300 cells/well). The test compound that was dissolved in DMSO solution so as to be a final concentration of 1 μM of the test compound and that of DMSO solution of 0.1% was added to each well. DMSO solution alone was added into the well for the control so as to be a final concentration of 0.1%.
The cells in each well were cultured for 10 days at 37° C. in the presence of 5% CO2. After the culturing was finalised, each well was washed once with Dulbecco-phosphate-buffer-saline solution (bivalent anion). Then, 1.5 ml of neutral buffered formalin solution containing 0.02% crystal violet was added to each well and the plate was kept stationary for 5 min for fixation and staining the cells. After fixation and staining, the cells were washed with water and were air-dried. Then the sum of the colony area (mm^2) of the stained cancer cells was calculated by using an image analyzer PCA-11 (SystemScience). From the calculated values, the inhibition rate (%) of the compound against the colony forming activity was obtained based on the following equation.
Inhibition Rate (%) against the colony forming activity=(1−A/B)×100
A: Sum of Colony Areas in the Group Treated with 1 μM of the Test Compound
B: Sum of Colony Areas in the Control Group

[2] = tested on: Mouse preadipocyte strain 3T3-L1; test: Inhibition of differentiation as an indication of acetic acid uptake; type: cell-based; conditions: control (0.01% dimethylsulfoxide) = 100%; for activity at 0.1 µM: Mus musculus, 3T3-L1, 0.1 μM test substance, read-out: Rate of Uptake (%) of [2-14C] acetic acid
How it was run: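 Confluent 3T3-L1 cells induced to differentiate for 4 days (insulin, IBMX, dexamethasone, 5% FBS) with test compound at 0.1 μM final or 0.01% DMSO, then 2 days in insulin maintenance medium, at 37 °C, 10% CO2. [2-14C]acetic acid uptake over 1 hr counted by scintillation; expressed as % of DMSO control.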

TNF-α production = test: Inhibitory activity against cytokine (TNF-α) production in LPS-stimulated RAW264.7 cells; type: cell-based, mouse; conditions: Mus musculus, RAW264.7, 15 h, 1 μM test compound, LPS 10 ng/mL
Experimental: The mouse monocyte/macrophage cell line, RAW264.7 (ATCC TIB71) was purchased from Dainippon Pharmaceutical Co., Ltd. The RAW264.7 cells were cultured in a CO2 incubator (37° C., 95% of humidity, 5% of CO2) by using the Dulbecco's modified Eagle's medium (DMEM medium; GIBCO, Cat. No. 11995-040) containing bovine fetal serum (the final concentration: 10% (v/v), MOREGATE, lot No. 474030), penicillin G (the final concentration: 50 units/mL […], GIBCO) and streptomycin (the final concentration: 20 μg/mL, GIBCO).
Sixty (60) μL of the RAW264.7 cell suspension (83,000 cells/mL) were plated into each well of a 96-well microplate (5,000 cells/well). After the cells were cultured for 4 hr in a CO2 incubator, 40 μL of DMEM medium containing 25 ng/mL of LPS (Sigma-Aldrich Japan K. K.) were added into each well (final concentration of LPS: 10 ng/mL). The test compound dissolved in DMSO at a concentration of 1 mM was diluted with DMEM medium by 20 times. Then 2 μL/well of the diluted solution were added to wells containing the plated cells (final concentration of the test compound: 1 μM). As the control, 2 μL/well of DMSO diluted with DMEM medium by 20 times were added to wells containing the plated cells either with LPS (final concentration: 10 ng/mL) or without LPS. After these cells were cultured in a CO2 incubator for 15 hr, the supernatant of the medium was recovered. The amount of mTNF-α in the medium supernatant was determined with a mouse TNF-α ELISA kit Quantikine M (R&D System), according to the experiment protocol attached with the kit.
The inhibitory activity of the test compound against TNF-α production was calculated according to the following equation.
A: The amount of TNF-α in the presence of test compound
B: The amount of TNF-α in the control without LPS
C: The amount of TNF-α in the control with 10 ng/mL of LPS
Inhibitory Activity of the Test Compound against TNF-α Production (%)=100−(A−B)/(C−B)×100

Row | SMILES | activity at 0.1 µM (Rat white adipocytes) | inhibition at 1 µM [1] | activity at 0.1 µM [2] | inhibition at 1 µM (TNF-α production) | Rate of Differentiation (%) (Rat white adipocytes) | Rate of Uptake (%) of [2-14C] acetic acid ([2]; 0.1 μM test substance)
1 | CCCCOc1ccc(NC(=O)c2cc([N+](=O)[O-])ccc2Cl)cc1 [Example 17, N-(4-Butyloxyphenyl)-(2-chloro-5-nitrophenyl)carboxamide] | 114% | 30% | 91.9% |  |  | 
2 | O=C(Nc1nc2ccccc2s1)c1cc([N+](=O)[O-])ccc1Cl [Example 33, N-(Benzothiazol-2-yl)-(2-chloro-5-nitrophenyl)carboxamide] | 127% | 60% | 86.1% |  |  | 
3 | O=C(Nc1cccc2ncccc12)c1cc([N+](=O)[O-])ccc1Cl [Example 56, N-(5-Quinolinyl)-(2-chloro-5-nitrophenyl)carboxamide] | 114% | 6% | 32.4% |  |  | 
4 | COc1ccc2nc(NC(=O)c3cc([N+](=O)[O-])ccc3Cl)sc2c1 [Example 67, N-(6-Methoxybenzothiazol-2-yl)-(2-chloro-5-nitrophenyl)carboxamide] |  | 31% | 70.2% | 23.2% |  | 
5 | O=C(Nc1nc2c(Cl)cccc2s1)c1cc([N+](=O)[O-])ccc1Cl [Example 69, N-(4-Chlorobenzothiazol-2-yl)-(2-chloro-5-nitrophenyl)carboxamide] | 135% | 84% | 57% |  |  | 
6 | O=C(Nc1cc(-c2ccccc2)[nH]n1)c1cc([N+](=O)[O-])ccc1Cl [Example 72, N-(5-Phenylpyrazol-3-yl)-(2-chloro-5-nitrophenyl)carboxamide] | 124% | 39% | 76.7% |  |  | 
7 | O=C(Nc1ccc(S(=O)(=O)Nc2ncccn2)cc1)c1cc([N+](=O)[O-])ccc1Cl [Example 95, N-[4-[(Pyrimidin-2-yl)aminosulfonyl]phenyl]-(2-chloro-5-nitrophenyl)carboxamide] | 115% | 1% | 86.3% |  |  | 
8 | Cl.O=C(Nc1ccc(-c2ccccn2)cc1)c1cc([N+](=O)[O-])ccc1Cl [Example 147, N-[4-(Pyridin-2-yl)phenyl]-(2-chloro-5-nitrophenyl)carboxamide Hydrochloride] |  | 19% |  |  | 115.5% | 76.2%
